The values that follow come from US7332512B2, “Halogenated nitrobutadienes for controlling animal pests” (priority 2001, dated 2008).

SMILES strings stand for the structures.

Common to all, as to format: in vivo
The subject of assay [1] is eggs, larvae and pupae of the white fly (Bemisia tabaci). Nature of the assay: Bemisia test (Example I), infected cotton plants dipped. To be noted: 500 ppm active compound; 6 days. As for the experimental part:
To produce a suitable preparation of active compound, 1 part by weight of active compound is mixed with the stated amounts of solvent and emulsifier, and the concentrate is diluted with water to the desired concentrations.
Cotton plants (Gossypium hirsutum) infected by eggs, larvae and pupae of the white fly (Bemisia tabaci) are dipped into a preparation of active compound of the desired concentration.
(§1) After the desired period of time, the kill in % is determined. 100% means that all animals have been killed; 0% means that none of the animals have been killed.

In assay [2] the test system is Adults of Ctenocephalides felis. Kind of assay: Test with cat fleas/oral uptake (Example L). To be noted: orally, 28 h. As for the experimental part:
Test with Cat Fleas/Oral Uptake
To produce a suitable formulation, a suitable solution of active compound is prepared from 20 mg of active compound and 1 ml of DMSO. 15 μl of this formulation are added to 3 ml of citrated cattle blood and stirred.
10 unfed adult fleas (Ctenocephalides felis, strain “Georgi”) are placed into a chamber (Ø 3.2 cm) whose top and bottom are closed with gauze. A metal cylinder whose underside is covered with parafilm is placed onto the chamber. The cylinder contains the 3 ml of blood/active compound formulation which can be taken up by the fleas through the paraffin membrane. Whereas the blood is warmed to 37° C., the temperature in the area of the flea chambers is adjusted to 25° C. Controls are mixed with the same volume of DMSO, without addition of a compound. The determinations are carried out in triplicate.
After 28 h, the mortality in % (=dead fleas) is determined.
Compounds which effect at least 25% kill of the fleas within 28 h are judged to be effective.

The subject of assay [3] is green peach aphid (Myzus persicae). Kind of assay: Myzus test (Example A), infested broad bean seedlings dipped. To be noted: 500 ppm active compound, 6 days. As to the method:
To produce a suitable preparation of active compound, 1 part by weight of active compound is mixed with the stated amounts of solvent and emulsifier, and the concentrate is diluted with water to the desired concentration.
Broad bean seedlings (Vicia faba minor) which are infested by the green peach aphid (Myzus persicae) are dipped into a preparation of active compound of the desired concentration and placed into a plastic box.
as §1

Assay [4] relates to Aphis gossypii. Kind of assay: Critical concentration test/root-systemic action (Example E), soil drench. The note with it: 20 ppm in soil; 10 days; root-systemic; savoy cabbage. As for the experimental part:
(§2) Critical Concentration Test/Root-Systemic Action
(§3) To produce a suitable preparation of active compound, 1 part by weight of active compound is mixed with the stated amount of solvent, the stated amount of emulsifier is added and the concentrate is diluted with water to the desired concentration.
(§4) The preparation of active compound is poured onto the soil of the infected savoy cabbage plant. In this way, the active compound can be taken up from the soil by the roots of the plants and can be transported into the leaves. Here, the concentration of active compound in the preparation is virtually immaterial, only the amount by weight per volume unit of soil, which is stated in ppm ([…]), matters.
(§5) The root-systemic action of the active compound is derived from the kill rate. It is 100% if all test animals have been killed and 0% if the number of test insects alive is the same as that for the untreated control.

Assay [5] deals with Myzus persicae. Kind of assay: Critical concentration test/root-systemic action (Example F), soil drench. To be noted: 20 ppm in soil; 10 days; root-systemic; savoy cabbage. As to the method: as §2, §3, §4, §5
Assay [6] deals with Myzus persicae. Kind of assay: Critical concentration test/root-systemic action (Example K), compound mixed with soil, broad beans. The note with it: 4 ppm in soil. As to the method: as §2, §3
The preparation of active compound is mixed intimately with the soil. Here, the concentration of the active compound in the preparation is virtually immaterial, only the amount by weight of active compound per volume unit of soil, which is stated in ppm ([…]) matters. The treated soil is filled into pots of a volume of 250 ml, and pregerminated broad beans are planted into these pots. In this way, the active compound can be taken up from the soil by the plant roots and be transported into the leaves.
The root-systemic action of the active compound is derived from the kill rate. It is 100% if all test animals have been killed and 0% if the number of test insects still alive is exactly the same as in the untreated control.

The test system of assay [7] is Lucilia cuprina larvae. Nature of the assay: Blowfly larvae test/development-inhibitory action (Example N). To be noted: 48 h. As to the method: Blowfly Larvae Test/Development-Inhibitory Action
(§6) 20 mg of active compound are dissolved in 1 ml of dimethyl sulphoxide, more dilute concentrations are prepared by dilution with dist. H2O.
About 20 Lucilia cuprina larvae are introduced into a test tube which contains about 1 cm^3 of horse meat and 0.5 ml of the preparation of active compound to be tested. After 24 and 48 hours, the efficacy of the preparation of active compound is determined. The test tubes are transferred into a beaker whose bottom is covered with sand. After a further 2 days, the test tubes are removed and the pupae are counted.
The efficacy of the preparation of active compound is assessed by the number of flies that have hatched after 1.5 times the period of development of an untreated control. 100% means that no flies have hatched; 0% means that all flies have hatched normally.

Assay [8] relates to larvae of the mustard beetle (Phaedon cochleariae). Nature of the assay: Phaedon larvae test (Example B), dipped cabbage leaves. To be noted: 100 ppm active compound; 6 days. As for the experimental part: (§7) To produce a suitable preparation of active compound, 1 part by weight of active compound is mixed with the stated amounts of solvent and emulsifier, and the concentrate is diluted with emulsifier-containing water to the desired concentration.
(§8) Cabbage leaves (Brassica oleracea) are treated by being dipped into the preparation of active compound of the desired concentration and are populated with larvae of the mustard beetle (Phaedon cochleariae) while the leaves are still moist.
(§9) After the desired period of time, the kill in % is determined. 100% means that all beetle larvae have been killed; 0% means that none of the beetle larvae have been killed.

Assay [9] concerns eggs of the diamondback moth (Plutella xylostella). Kind of assay: Plutella test (Example C), synthetic feed. To be noted: 150 ppm active compound; 7 days; kill of eggs and/or larvae. As to the method: To produce a suitable preparation of active compound, 1 part by weight of active compound is mixed with the stated amount of solvent and the concentrate is diluted with methanol to the desired concentrations.
The stated amount of the preparation of active compound of the desired concentration is pipetted onto a standardized amount of synthetic feed. After the methanol has evaporated, about 200-300 eggs of the diamondback moth (Plutella xylostella) are placed onto the feed.
After the desired period of time, the kill of the eggs and/or larvae in % is determined. 100% means that all animals have been killed; 0% means that none of the animals have been killed.

For assay [10], the system named is cotton aphid (Aphis gossypii). Nature of the assay: Aphis gossypii test (Example D), infested cotton leaves dipped. To be noted: 500 ppm active compound; 6 days. As to the method: as §7
Cotton leaves (Gossypium hirsutum) which are heavily infested by the cotton aphid (Aphis gossypii) are treated by being dipped into the preparation of active compound of the desired concentration.
(§10) After the desired period of time, the kill in % is determined. 100% means that all aphids have been killed; 0% means that none of the aphids have been killed.

Assay [11] has as its system green peach aphid (Myzus persicae). Kind of assay: Myzus test (Example G), infested cabbage leaves dipped. The note with it: 500 ppm active compound, 6 days. As for the experimental part:
as §7
Cabbage leaves (Brassica oleracea), which are heavily infested by the green peach aphid (Myzus persicae) are treated by being dipped into the preparation of active compound of the desired concentration.
as §10

Assay [12] concerns larvae of the mustard beetle (Phaedon cochleariae). Kind of assay: Phaedon larvae test (Example H), dipped cabbage leaves. The note with it: 500 ppm active compound; 6 days. As to the method:
as §7, §8, §9

Assay [13] deals with adult Musca domestica, Reichswald strain (OP, SP, carbamate-resistant). Kind of assay: Test with flies (Musca domestica) (Example M), treated filter paper. The note with it: time of reading not given. As to the method:
Test with Flies (Musca domestica)
as §6
2 ml of this active compound preparation are pipetted onto filter paper discs (Ø 9.5 cm) in Petri dishes of corresponding dimensions. After the filter discs have been dried, 25 test animals are transferred into the Petri dishes, which are then covered.
After 1, 3, 5, 24 and 48 hours, the activity of the active compound preparation is determined. 100% means that all flies have been killed; 0% means that none of the flies have been killed.

The subject of assay [14] is caterpillars of the armyworm (Spodoptera frugiperda). Nature of the assay: Spodoptera frugiperda test (Example J), dipped cabbage leaves. To be noted: 500 ppm active compound; 7 days; % only printed in method b344. As for the experimental part:
Spodoptera frugiperda Test
as §7
Cabbage leaves (Brassica oleracea) are treated by being dipped into the preparation of active compound of the desired concentration and are populated with caterpillars of the armyworm (Spodoptera frugiperda) while the leaves are still moist.
After the desired period of time, the kill in % is determined. 100% means that all caterpillars have been killed; 0% means that none of the caterpillars have been killed.

For `O=[N+]([O-])/C(C(=C(Cl)Cl)N1CCCC1)=C1\NCCN1Cc1ccc(Cl)nc1` [Example I-10], the “Kill rate in % after 6 d (days)” value in [1] was determined as 100%. In addition, the “% action/kill” value was found to be 40% in [2] (20 ppm in cattle blood) and 100% in assay [2] (100 ppm in cattle blood).
`O=[N+]([O-])/C(C(Cl)=C(Cl)Cl)=C1\NCCN1Cc1ccc(Cl)nc1` [Example I-1, 2-chloro-5-[2-(2,3,3-trichloro-1-nitroallylidene)imidazolidin-1-ylmethyl]pyridine]: in assay [3], the “Kill rate in % after 6 d (days)” value came out at 100%. The “Kill rate in % after 10 d (days)” value in assay [4] and in assay [5] was 100% throughout. Besides, the “% kill after weeks” value in assay [6] (after 2 weeks) is 100%; in [6] (after 3 weeks) it was 100%; in assay [6] (after 4 weeks) it was 99%; in assay [6] (after 5 weeks), 100%. Besides, the “% action/kill” value was found to be 0% in assay [7] (20 ppm) and 100% in assay [7] (100 ppm).
With `O=[N+]([O-])/C(C(=C(Cl)Cl)N1CCOCC1)=C1\NCCN1Cc1ccc(Cl)nc1` [Example I-2, 2-chloro-5-[2-(2-morpholinyl-3,3-dichloro-1-nitro-allylidene)imidazolidin-1-ylmethyl]pyridine], the “Kill rate in % after 6 d (days)” value in [3], in assay [8], in assay [10], in assay [11], in assay [12] and in assay [1] was 100% each time. Further, the “Kill rate in % after 7 d (days)” value in assay [9] worked out at 100%. Moreover, the “Kill rate in % after 10 d (days)” value in assay [4] and in assay [5] was 100% throughout. The “% kill after weeks” value in [6] (after 2 weeks) is listed as 100%; in [6] (after 3 weeks) it was 100%; in [6] (after 4 weeks) it was 99%. In addition, the “% action/kill” value in assay [2] (0.8 ppm in cattle blood) is 0%; in assay [2] (4 ppm in cattle blood), 0%; in assay [2] (20 ppm in cattle blood), 80%; in assay [2] (100 ppm in cattle blood), 80%; in assay [13] (20 ppm), 0%; in [13] (100 ppm), 50%. Also, the “% action/kill” value stood at 0% in assay [7] (20 ppm) and 100% in [7] (100 ppm).
For `CN(C(=C(Cl)Cl)/C(=C1/NCCN1Cc1ccc(Cl)nc1)[N+](=O)[O-])C(C)(C)C` [Example I-12], in assay [14], the “Rate of activity after 7 d (days)” value is listed as 100%. The “% action/kill” value in [2] (20 ppm in cattle blood) came out at 30%; in assay [2] (100 ppm in cattle blood), 70%; in assay [7] (20 ppm), 0%; in [7] (100 ppm), 100%.
For `O=[N+]([O-])/C(C(=C(Cl)Cl)N1CCSCC1)=C1\NCCN1Cc1ccc(Cl)nc1` [Example I-11], the “Kill rate in % after 6 d (days)” value in assay [11] and in assay [12] was 100% each time. Moreover, the “% action/kill” value in [2] (20 ppm in cattle blood) turned out to be 0%; in [2] (100 ppm in cattle blood), 70%; in [7] (20 ppm), 0%; in assay [7] (100 ppm), 100%.
`Cc1ccc(SC(=C(Cl)Cl)C(=C2NCCN2Cc2ccc(Cl)nc2)[N+](=O)[O-])cc1` [Example I-3, 2-chloro-5-[2-(2-(p-tolylthio)-3,3-dichloro-1-nitroallylidene)imidazolidin-1-ylmethyl]pyridine]: the results for the “% action/kill” value in assay [2] (20 ppm in cattle blood) and in assay [2] (100 ppm in cattle blood) were 0% and 50%, respectively.
